Peptide text beside a SMILES is read from it.
Experiments:
[1] = tested on: T. gondii RH strain tachyzoites; assay: Mouse survival assay after T. gondii RH infection; format: in vivo; settings: mice i.p. 1000 RH strain tachyzoites; for effect on survival time of infected mice (in words): peptide after 4 h, 4 mg/kg, Fig. 3E; for survival of infected mice prolonged to: peptide injected after 4 h, 4 mg/kg (legend; method says 4 mg/mL), control group all died at 127.1 h
Experimental: The anti-T. gondii effect of peptides in vivo was investigated through a mouse survival experiment. The experiment was divided into a PBS control group and different polypeptide groups. Each group of mice was intraperitoneally injected with 1000 RH strain tachyzoites. After 4 h, the pre-prepared 4 mg/mL peptides were injected into the mice. The survival time of mice in each group was recorded and analyzed statistically.

[2] = tested on: tachyzoites of RH-GFP-TgAtg8 T. gondii strain; assay: Fluorescence microscopy killing assay with RH-GFP-TgAtg8 tachyzoites; format: cell-based, Toxoplasma gondii; settings: for fluorescence area and intensity of RH-GFP-TgAtg8 tachyzoites vs control: 10 μM peptide, 2 h incubation, fluorescence microscopy, Fig. 2C, D; for concentration dependence of killing effect (fluorescence area and intensity): 5 μM, 10 μM, 20 μM, room temperature, 2 h, Fig. 3A, B
Experimental: To explore the concentration dependence of the polypeptides against T. gondii, XYP1-derived peptide solutions with different concentration gradients (5 μM, 10 μM, 20 μM) were prepared and then mixed with T. gondii tachyzoites at room temperature. After incubation for 2 h, the anti-T. gondii effect was observed by fluorescence microscopy.

T. gondii tachyzoites [3] = assay: Trypan blue staining (exclusion) assay, killing of tachyzoites; format: cell-based, Toxoplasma gondii; settings: 10 μM peptide, 2 h incubation with T. gondii, optical microscope, Fig. 2A
Experimental: When T. gondii died, trypan blue was able to cross its cell membrane and enter the interior, making it blue. Trypan blue exclusion test was undertaken as mentioned before. Firstly, 10 μM different XYP1-derived peptides were prepared, incubated with T. gondii for 2 h, and then the trypan blue dye was added. After 3–5 min, the survival rate of T. gondii was observed by optical microscope and the mortality rate was calculated.

T. gondii tachyzoites [4] = assay: Transmission electron microscopy of tachyzoite internal structure; format: cell-based, Toxoplasma gondii; settings: 10 μM peptide, 2 h; Fig. 5
Experimental: TEM steps mainly include fixing, rinsing, dehydration, infiltration, embedding, etc. After the T. gondii samples were fixed in 4% glutaraldehyde, they were washed with a cacodylate buffer, and 1% osmium tetroxide was used to fix the sample at 4 ℃ for 2 h. The fixed samples were then washed and subjected to a series of gradient dewatering treatments before being embedded in epoxy resin and polymerized at 60 ℃. After polymerization, the sample was sliced and double stained. Finally, the internal structure of T. gondii tachyzoites treated with different polypeptides was observed by TEM (Tecnai G2 Spirit TWIN, USA).

CCK-8 cytotoxicity assay = format: cell-based; settings: human; CCK-8, HFFs, 24 h with peptide then 2 h with CCK-8, OD540; Fig. 3C
Experimental: […] After 24 h, 10 μL CCK-8 solution (APExBIO, USA) was added and incubated for another 2 h. The OD540 value was then measured and the cell mortality was calculated.

human red blood cells = assay: Hemolysis assay; format: cell-based; settings: 1% human red blood cells in PBS, 37 ℃, 30 min, OD540
Experimental: The hemolytic activity of peptides was determined by the amount of hemoglobin released from lysed human red blood cells. Normal human blood was mixed 1:1 with Aldrin’s fluid, followed by centrifuging, and phosphate buffered saline (PBS) was added to make 1% red blood cell resuspension. The 50 μL resuspension was mixed with 50 μL PBS, 1% Triton X-100, 70% DMSO (Sigma, USA), and different concentrations of polypeptides, then incubated at 37 ℃ for 30 min. After centrifugation, the OD540 value of the supernatant was measured by Microplate reader (Agilent, USA) and the hemolysis rate was calculated.

T. gondii tachyzoites [5] = settings: 10 μM XYP1; previous study; cited from earlier work
Experimental: Therefore, trypan blue staining assay was used to compare the killing activity in vitro of 10 μM different derived peptides and XYP1.

NF-kB = assay: qRT-PCR of NF-kB transcription; format: cell-based, human; settings: qPCR, XYP1 treatment group vs control; Fig. 7H
Experimental: (§1) The control group consisted of HFF cells infected with T. gondii without XYP1, and the experimental group was treated with XYP1 for 8 h. Total RNAs were extracted from the control and experimental groups and reverse to cDNA, with three replicates per group. After the steps of end repair, A-tailing, and adapter ligation, the samples were proceeded with polymerase chain reaction (PCR) amplification and Illumina transcriptome sequencing in the OE biotech Co., Ltd. (Shanghai, China). Trimmomatic software was used to filter the raw data to obtain high-quality data information. Subsequently, the filtered data was aligned and assembled using HISAT2 [30] and StringTie tool. The number of reads mapped to each gene in each sample was calculated.
(§2) The total RNAs from different samples were extracted using the classical Trizol method. The PerfectStart Uni RT&qPCR Kit (TransGen Biotech, China) was used to efficiently reverse transcribe RNA into cDNA and synthesize the first strand. The qRT-PCR reaction system contains cDNA temple, forward and reverse primers, double stranded DNA fluorescent dye (SYBR Green I), DNA polymerase, dNTP and buffer. The PCR reaction was performed using a two-step amplification procedure: 94 ℃ for 30 s (pre-denaturation) followed by 40 cycles of 94 ℃ for 5 s and 60 ℃ for 30 s. Finally, the relative expression of each gene was calculated by 2^−∆∆Cq method.

IL-17 = assay: qRT-PCR of IL-17 transcription; format: cell-based, human; settings: qPCR, XYP1 treatment group vs control; Fig. 7F
Experimental: as §1, §2

TP53 = assay: qRT-PCR of TP53 transcription; format: cell-based, human; settings: qPCR, XYP1 treatment group vs control; Fig. 7G
Experimental: as §1, §2

| Structure (SMILES) | effect on survival time of infected mice (in words) [1] | survival of infected mice prolonged to [1] | fluorescence area and intensity of RH-GFP-TgAtg8 tachyzoites vs control [2] | anti-T. gondii killing activity (toxoplasma mortality, trypan blue) (T. gondii tachyzoites [3]) | damage of internal structure of tachyzoites (TEM) (T. gondii tachyzoites [4]) | IC50 at 24 h (CCK-8 cytotoxicity assay) | concentration dependence of killing effect (fluorescence area and intensity) [2] | hemolysis at 1.25 μM to 10 μM (human red blood cells; 1.25 μM to 10 μM) | killing of T. gondii tachyzoites (T. gondii tachyzoites [5]) | transcription level of NF-kB (NF-kB) | transcription level of IL-17 (IL-17) | transcription level of TP53 (TP53) | hemolysis at 1.25 μM to 80 μM (human red blood cells; 1.25 μM to 80 μM) | hemolysis at the highest concentration (160 μM) (human red blood cells; 160 μM) |
| --- | --- | --- | --- | --- | --- | --- | --- | --- | --- | --- | --- | --- | --- | --- |
| CC[C@H](C)[C@H](NC(=O)[C@H](CCCCN)NC(=O)[C@H](CCCCN)NC(=O)[C@H](C)NC(=O)[C@@H](NC(=O)[C@H](CCCCN)NC(=O)[C@H](CCCCN)NC(=O)[C@H](CCSC)NC(=O)[C@H](CCCCN)NC(=O)[C@H](CCCCN)NC(=O)[C@H](Cc1ccccc1)NC(=O)[C@H](Cc1c[nH]c2ccccc12)NC(=O)[C@H](CCCCN)NC(=O)[C@H](CCCCN)NC(=O)[C@@H](N)CC(C)C)[C@@H](C)CC)C(=O)N[C@@H](C)C(=O)N[C@@H](CCCCN)C(=O)N[C@@H](CC(C)C)C(=O)O [XYP1-18-1] (H-LKKWFKKMKKIAKKIAKL-OH; N-terminus and C-terminus assumed) | poor effect on prolonging the survival time of mice | 145 h | significantly reduced compared with the control group | good anti-T. gondii activity | shrinkage and vacuolization, but also complete dissolution of the tachyzoites observed | 45.6 µM | – | – | – | – | – | – | – | – |
| CC[C@H](C)[C@H](NC(=O)[C@H](Cc1ccccc1)NC(=O)[C@H](CCCCN)NC(=O)[C@H](C)NC(=O)[C@@H](NC(=O)[C@H](CO)NC(=O)[C@H](CCCCN)NC(=O)[C@H](CCSC)NC(=O)[C@H](C)NC(=O)[C@H](CCCCN)NC(=O)[C@H](Cc1ccccc1)NC(=O)[C@H](Cc1c[nH]c2ccccc12)NC(=O)[C@H](CCCCN)NC(=O)[C@@H](NC(=O)[C@@H](N)CCCCN)[C@@H](C)CC)[C@@H](C)CC)C(=O)N[C@@H](C)C(=O)N[C@@H](CCCCN)C(=O)N[C@@H](CC(=O)O)C(=O)N[C@@H](CCC(N)=O)C(=O)N[C@@H](CC(C)C)C(=O)N[C@@H](CCCCN)C(=O)N[C@@H](CCCCN)C(=O)N[C@@H](Cc1c[nH]cn1)C(=O)N[C@@H](CC(C)C)C(=O)O [XYP1] (H-KIKWFKAMKSIAKFIAKDQLKKHL-OH; N-terminus and C-terminus assumed) | – | 208.5 h | – | consistent with the previous findings | ruptures in the surface membrane, but also different degrees of vacuolization internally | 33.6 µM | statistically different | almost no hemolysis reaction was observed | can kill T. gondii tachyzoites | up-regulated | down-regulated | down-regulated | – | – |
| CC[C@H](C)[C@H](NC(=O)[C@H](Cc1ccccc1)NC(=O)[C@H](CCCCN)NC(=O)[C@H](C)NC(=O)[C@@H](NC(=O)[C@H](CO)NC(=O)[C@H](CCCCN)NC(=O)[C@H](CCSC)NC(=O)[C@H](C)NC(=O)[C@H](CCCCN)NC(=O)[C@H](Cc1ccccc1)NC(=O)[C@H](Cc1c[nH]c2ccccc12)NC(=O)[C@H](CCCCN)NC(=O)[C@@H](NC(=O)[C@@H](N)CCCCN)[C@@H](C)CC)[C@@H](C)CC)C(=O)N[C@@H](C)C(=O)N[C@@H](CCCCN)C(=O)N[C@@H](CC(=O)O)C(=O)O [XYP1-18] (H-KIKWFKAMKSIAKFIAKD-OH; N-terminus and C-terminus assumed) | no significant difference between XYP1-18 and XYP1 | 191 h | significantly reduced compared with the control group | comparable to XYP1 | severe deformation and rupture of the surface membrane, but also serious shrinkage and vacuolization internally | 80.6 µM | statistically different | – | – | – | – | – | almost no hemolysis | only minor hemolysis |
